US20260224688A1, “HELPER LIPIDS FOR NUCLEIC ACID DELIVERY” (SANOFI PASTEUR INC., priority 2023, published 2026)

Assays:
[1] = test system: hEPO; assay: IM EPO expression of LNPs containing new helper lipids (hEPO in serum by ELISA); type: in vivo, female BALB/cJ mice; conditions: single IM injection; for 24-h EPO: serum 24 hours post injection
Protocol: Lipid nanoparticles were formulated containing the four lipid components shown below at a ratio of 40:30:28.5:1.5, complexed with a hEPO messenger RNA. • Cationic lipid, 40 mol % • Phospholipid (PEA) helper lipid, 30 mol % • Cholesterol, 28.5 mol % • DMG-PEG-2K (1,2-dimyristoyl-rac-glycero-3-methoxypolyethyleneglycol), 1.5 mol % The cationic lipid component of each formulation was selected from the compounds in the table below: […]
EPO expression studies were conducted with female BALB/cJ mice 6-8 weeks of age. Mice were dosed with […] EPO mRNA in 30 μL of LNPs by a single intramuscular (IM) injection into the gastrocnemius leg muscle. Blood samples were taken 6 and 24 hours post injection and hEPO levels were measured in the blood serum of the mice using an ELISA assay according to the manufacture's protocol. WO2022/099003 A1 also describes an in vivo assay for intramuscular administration (e.g. on page 46, paragraph [00206]).

[2] = test system: hEPO; assay: IV EPO expression of LNPs (tail vein injection); type: in vivo, female BALB/cJ mice; conditions: cationic lipid CL-0137, helper lipid 30 mol %; 0.017 μg EPO mRNA tail vein; 6 hours; DOPE = 1
Protocol: Lipid nanoparticles were formulated containing the four lipid components shown below at a ratio of 40:30:28.5:1.5, complexed with a hEPO messenger RNA. • Cationic lipid CL-0137, 40 mol % • Helper lipid, 30 mol % • Cholesterol, 28.5 mol % • DMG-PEG-2K (1,2-dimyristoyl-rac-glycero-3-methoxypolyethyleneglycol), 1.5 mol %
EPO expression studies were conducted with female BALB/cJ mice 6-8 weeks of age. Mice were dosed with 0.017 μg EPO mRNA LNPs in a volume of 5 ul by a single tail vein injection. Blood samples were taken 6 hours post injection and hEPO levels were measured in the blood serum of the mice using an ELISA assay according to the manufacture's protocol.

[3] = Dynamic light scattering of lipid nanoparticles (size, PDI); type: physicochemical
Protocol: (§1) Lipid nanoparticle formulations 3 were prepared by Process A at a molar ratio of 40:1.5:30:28.5 (Cationic Lipid: DMG-PEG2000: Cholesterol: Helper Lipid) with the cationic lipids and helper lipids disclosed in the tables below. The Polydispersity Index (Pdl) of lipid nanoparticles can be determined by diluting the formulation in 10% trehalose at about 0.1 mg/ml mRNA concentration and then measuring the size on Malvern zetasizer. The lipid nanoparticle size can be obtained with Malvern Zetasizer Nano-ZS.
Dynamic light scattering (DLS) measurements were performed using a Malvern Instruments Zetasizer with a backscattering detector angle of 173° and a 4-mW, 633-nm He—Ne laser (Worcestershire, UK). The samples were analyzed by diluting in 10% Trehalose and measuring the size and Poly dispersity Index (PDI) in an optical grade polystyrene cuvette.

[4] = mRNA encapsulation efficiency of lipid nanoparticles; type: physicochemical; conditions: for Encapsulation efficiency (EE): LNP with cationic lipid CL-A
Excerpt: In embodiments, the lipid nanoparticle encapsulates a nucleic acid, optionally an mRNA encoding a peptide or protein. In embodiments, the lipid nanoparticle encapsulates an mRNA encoding a peptide or protein, optionally for use in a vaccine. In embodiments, the peptide is an antigen. As used herein, the phrase “encapsulation percentage” refers to the fraction of therapeutic agent (e.g. mRNA) that is effectively encapsulated within a liposomal-based vehicle (e.g. a lipid nanoparticle) relative to the initial fraction of therapeutic agent present in the lipid phase. In embodiments, the lipid nanoparticles have an encapsulation percentage for mRNA of at least 50%. In embodiments, the lipid nanoparticles have an encapsulation percentage for mRNA of at least 55%. In embodiments, the lipid nanoparticles have an encapsulation percentage for mRNA of at least 60%. In embodiments, the lipid nanoparticles have an encapsulation percentage for mRNA of at least 65%. In embodiments, the lipid nanoparticles have an encapsulation percentage for mRNA of at least 70%. In embodiments, the lipid nanoparticles have an encapsulation percentage for mRNA of at least 75%. In embodiments, the lipid nanoparticles have an encapsulation percentage for mRNA of at least 80%. In embodiments, the lipid nanoparticles have an encapsulation percentage for mRNA of at least 85%. In embodiments, the lipid nanoparticles have an encapsulation percentage for mRNA of at least 90%. In embodiments, the lipid nanoparticles have an encapsulation percentage for mRNA of at least 95%. In embodiments, the encapsulation percentage is calculated by performing the Ribogreen assay (Invitrogen) with and without the presence of 0.1% Triton-X 100.
The lipid nanoparticles in the examples of the present invention were formulated using Process A of WO 2018/089801 (see, e.g., Example 1 and FIG. 1 of WO 2018/089801). Process A (“A”) relates to a conventional method of encapsulating mRNA by mixing mRNA with a mixture of lipids, without first pre-forming the lipids into lipid nanoparticles. In an exemplary process, an ethanolic solution of a mixture of lipids (cationic lipid, phosphatidylethanolamine, cholesterol, and polyethylene glycol-lipid) at a fixed lipid to mRNA ratio were combined with an aqueous buffered solution of target mRNA at an acidic pH under controlled conditions to yield a suspension of uniform LNPs. After ultrafiltration and diafiltration into a suitable diluent system, the resulting nanoparticle suspensions were diluted to final concentration, filtered, and stored frozen at −80° C. until use.
as §1

[5] = CL-A LNP, 0.1 μg EPO mRNA in 30 μL, serum 6 hours post injection
[6] = CL-B LNP, serum 6 hours post injection
[7] = LNP with cationic lipid CL-A, hEPO mRNA, 40:30:28.5:1.5

Polydispersity Index (PDI) ([3]; LNP with cationic lipid CL-A)	Size [3, 7]	PDI ([3]; LNP with cationic lipid CL-B)	Size ([3]; LNP with cationic lipid CL-B)	PDI ([3]; LNP with cationic lipid CL-C)	Size ([3]; LNP with cationic lipid CL-C)	Encapsulation efficiency (EE) [4]	EE ([4]; LNP with cationic lipid CL-B)	EE ([4]; LNP with cationic lipid CL-C)	PDI ([3]; LNP with cationic lipid CL-D)	Size ([3]; LNP with cationic lipid CL-D)	EE ([4]; LNP with cationic lipid CL-D)	Structure (SMILES)	6-h EPO [1, 5]	6-h EPO [1, 6]	6-h EPO ([1]; CL-C LNP, (6-h))	Normalized Mean IV EPO expression [2]	6-h EPO ([1]; CL-C LNP)	24-h EPO ([1]; CL-B LNP)
0.083	138 nm	0.087	110.7 nm	0.091	108.0 nm	95%	94%	91%				CCCCCCCCC(CCCCCCCC)OC(=O)CCCCCC(=O)OCC(COP(=O)(O)OCCN(C)C)OC(=O)CCCCCC(=O)OC(CCCCCCCC)CCCCCCCC (stereo not shown) [Compound 15, O′^1,O^1-(3-(((2-(Dimethylamino)ethoxy)(hydroxy)phosphoryl)oxy)propane-1,2-diyl) 7-di(heptadecan-9-yl) di(heptanedioate)]	25.3 ng/mL	30 ng/mL	15.2 ng/mL	2.24		
0.121	137 nm	0.151	120.1 nm	0.142	92.2 nm	93%	95%	93%				CCCCCCCCC(CCCCCCCC)OC(=O)CCCCCCC(=O)OCC(COP(=O)(O)OCCN(C)CCO)OC(=O)CCCCCCC(=O)OC(CCCCCCCC)CCCCCCCC (stereo not shown) [Compound 25]	16.5 ng/mL	44.5 ng/mL	56.5 ng/mL	1.24		
0.048	166 nm	0.127	141.9 nm	0.112	98.0 nm	94%	96%	93%				CCCCCCCCC(CCCCCCCC)OC(=O)CCCCCCC(=O)OC[C@@H](COP(=O)(O)OCCN(C)C)OC(=O)CCCCCCC(=O)OC(CCCCCCCC)CCCCCCCC [Compound 13]	8.348 ng/mL	53.8 ng/mL	64.4 ng/mL	1.47		
0.068	148 nm	0.067	137.0 nm	0.141	101.4 nm	96%	92%	91%				CCCCCCCCC(CCCCCCCC)OC(=O)CCCCCCC(=O)OC[C@H](COP(=O)(O)OCCN(C)C)OC(=O)CCCCCCC(=O)OC(CCCCCCCC)CCCCCCCC [Compound 14]	0 ng/mL	35.4 ng/mL	34.6 ng/mL	0.95		

The next lines start with the compound.

Structure (SMILES)	Polydispersity Index (PDI) ([3]; LNP with cationic lipid CL-A)	Size [3, 7]	PDI ([3]; LNP with cationic lipid CL-B)	Size ([3]; LNP with cationic lipid CL-B)	PDI ([3]; LNP with cationic lipid CL-C)	Size ([3]; LNP with cationic lipid CL-C)	Encapsulation efficiency (EE) [4]	EE ([4]; LNP with cationic lipid CL-B)	EE ([4]; LNP with cationic lipid CL-C)	PDI ([3]; LNP with cationic lipid CL-D)	Size ([3]; LNP with cationic lipid CL-D)	EE ([4]; LNP with cationic lipid CL-D)	6-h EPO [1, 5]	6-h EPO [1, 6]	6-h EPO ([1]; CL-C LNP, (6-h))	Normalized Mean IV EPO expression [2]	6-h EPO ([1]; CL-C LNP)	24-h EPO ([1]; CL-B LNP)
CC(C)CCCCOC(=O)CCCCCCC(=O)OCC(COP(=O)(O)OCCN(C)C)OC(=O)CCCCCCC(=O)OCCCCC(C)C (stereo not shown) [Compound 8, O′^1,O^1-(3-(((2-(Dimethylamino)ethoxy)(hydroxy)phosphoryl)-oxy)propane-1,2-diyl) 8-bis(5-methylhexyl) di(octanedioate)]	0.06	116 nm	0.146	92.3 nm	0.102	91.1 nm	89%	18%	87%	0.061	151.4 nm	28%			1.4 ng/mL	0.29	0.5 ng/mL	
CCCCCCCCC(CCCCC)COC(=O)CCC(=O)OCC(COP(=O)(O)OCCN)OC(=O)CCC(=O)OCC(CCCCC)CCCCCCCC (stereo not shown) [Compound 4, O,O′-(3-(((2-Aminoethoxy)(hydroxy)phosphoryl)oxy)propane-1,2-diyl) bis(2-pentyldecyl) disuccinate]	0.048	125 nm	0.112	104.7 nm	0.123	109.5 nm	85%	86%	87%					13.7 ng/mL	22.3 ng/mL	2.38	20.1 ng/mL	11.6 ng/mL
CCCCCCCCC(CCCCCCCC)OC(=O)CCCCCCC(=O)OCC(COP(=O)(O)OCCN)OC(=O)CCCCCCC(=O)OC(CCCCCCCC)CCCCCCCC (stereo not shown) [Compound 6, 2-Aminoethyl (2,3-bis((8-(heptadecan-9-yloxy)-8-oxooctanoyl)oxy)propyl) phosphate]	0.066	159 nm	0.049	119.9 nm	0.037	108.9 nm	90%	94%	94%	0.063	131.5 nm	94%		28.4 ng/mL	39.9 ng/mL	2.67	27.1 ng/mL	16.2 ng/mL
CCCCCCCCCC(CCCCCCCCC)C(=O)OCC(COP(=O)(O)OCCN(C)C)OC(=O)C(CCCCCCCCC)CCCCCCCCC (stereo not shown) [Compound 9, 3-(((2 (Dimethylamino)ethoxy)(hydroxy)phosphoryl)oxy)-propane-1,2-diyl bis(2-nonylundecanoate)]	0.126	112 nm	0.113	108.2 nm	0.087	110.1 nm	84%	78%	78%					5.6 ng/mL	22.3 ng/mL	3.68	12.2 ng/mL	3.3 ng/mL
